Assay results: article PMC7972841, “In Vivo Molecular Imaging of the Efficacy of Aminopeptidase N (APN/CD13) Receptor Inhibitor Treatment on Experimental Tumors Using ^68Ga-NODAGA-c(NGR) Peptide” (BioMed Research International, 2021)
Like-named read-outs stand apart in the source and are kept apart here. Where a SMILES comes first, the peptide text is derived from it. Bridges are numbered along the chain shown (N, C = ends). The star is where a group is joined. NODAGA = O=C(O)CN1CCN(CC(=O)O)CCN(C(CCC(=O)*)C(=O)O)CC1

Experiments:
HT1080 tumors = assay: Tumor volume, HT1080 tumors; assay type: in vivo, CB17 SCID mice; settings: caliper, n = 10/group
Experimental: (§2) For experimental tumor induction, mice were anaesthetized with a dedicated small animal anaesthesia device (Tec3 Isoflurane Vaporizer, Eickemeyer Veterinary Equipment, UK) using 3% isoflurane (Forane, AbbVie), 0.4 L/min O2, and 1.4 L/min N2O. After depilation of the left shoulder area of the animals, CB17 SCID mice (n = 30) were injected subcutaneously with 1.5 × 10^6 HT1080 (human fibrosarcoma) cells in 150 μL (1/3 part of Matrigel and 2/3 part of saline), and C57BL/6 mice (n = 30) were injected subcutaneously with 3 × 10^6 B16-F10 cells in 150 μL of sterile saline. Tumor growth was assessed by caliper measurements by the same experienced researcher. The tumor size was calculated using the following formula: (largest diameter × smallest diameter^2)/2.
(§3) For the actinonin-treated groups, 5 mg/kg actinonin (dissolved in 10 μL abs. EtOH and diluted with 140 μL HumAqua (aqua destillata, TEVA, Debrecen, Hungary)) was administrated daily by intraperitoneal injection for 7 days. The control-untreated group was injected intraperitoneally with 150 μL saline for 7 days.

APN/CD13 [1] = assay: Western blot analysis of APN/CD13 in B16-F10 tumors; assay type: in vivo, mouse; settings: B16-F10 melanoma after treatment, densitometry
Experimental: For western blot analysis frozen tissue samples were pulverized under liquid nitrogen and tissue homogenization was performed with TissueLyser II (QIAGEN). Cells were lysed in RIPA buffer (50 mM Tris, 150 mM NaCl, 0.1 % SDS, 1 % TritonX 100, 0.5 % sodium deoxycolate, 1 mM EDTA, 1 mM Na3VO4, 1 mM NaF, 1 mM PMSF, protease inhibitor cocktail). […] Upon densitometry, negative control samples (mouse large intestine) were considered to be 1 and values are expressed as fold change relative to controls to reduce unwanted variations. […]

AKR tumor = settings: 5 mg/kg, syngeneic AKR tumor-bearing mice; cited from earlier work
From the text: (§1) In our further in vivo experiments, the efficacy of the actinonin and bestatin treatments was investigated on experimental tumors. The antitumor effect of actinonin was investigated earlier by Xu and coworkers on human (HL60, NB4) and murine (AKR) leukemia and lymphoma (RAJI, DAUDI) cell lines. […] In in vivo studies, syng ...

[2] = test system: human (HL60, NB4) and murine (AKR) leukemia cell lines; settings: in vitro; cited from earlier work
From the text: as §1

[3] = test system: lymphoma (RAJI, DAUDI) cell lines; settings: in vitro; cited from earlier work
From the text: as §1

human lymphoma = settings: subcutaneous human lymphoma-bearing nude mice; cited from earlier work
From the text: as §1

B16-F10 tumor = assay: Ex vivo biodistribution, B16-F10 tumor-bearing mice; settings: B16-F10 tumor-bearing mice treated ip daily (bestatin 15 mg/kg or actinonin 5 mg/kg), mean±SD, n=10
Experimental: as §3
(§4) After in vivo PET imaging, control-untreated tumor-bearing and treated tumor-bearing animals were euthanized with 5% Forane and dissected, and blood, urine, and samples were taken from the liver, spleen, kidney, small intestine, large intestine, stomach, heart, lungs, tumors, muscles, and fat. The weight and radioactivity of the selected organs and tissues were measured with a calibrated gamma counter (Hewlett Packard Cobra II Autogama Gamma Counter). The uptake of the APN/CD13-specific ^68Ga-NODAGA-c(NGR) radiotracer was expressed as %ID/g tissue.

HT1080 tumor = assay: Ex vivo biodistribution, HT1080 tumor-bearing mice; settings: HT1080 tumor-bearing mice treated ip daily (bestatin 15 mg/kg or actinonin 5 mg/kg), mean±SD, n=10
Experimental: as §3, §4

[4] = test system: B16-F10 tumors (APN/CD13); settings: for T/M ratio of treated tumor: 90 min after iv tracer; for ^68Ga-NODAGA-c(NGR) SUVmean of treated tumor: PET 90 min after iv tracer, mean ± SD
Experimental: (§5) For experimental tumor induction, mice were anaesthetized with a dedicated small animal anaesthesia device (Tec3 Isoflurane Vaporizer, Eickemeyer Veterinary Equipment, UK) using 3% isoflurane (Forane, AbbVie), 0.4 L/min O2, and 1.4 L/min N2O. After depilation of the left shoulder area of the animals, CB17 SCID mice (n = 30) were injected subcutaneously with 1.5 × 10^6 HT1080 (human fibrosarcoma) cells in 150 μL (1/3 part of Matrigel and 2/3 part of saline), and C57BL/6 mice (n = 30) were injected subcutaneously with 3 × 10^6 B16-F10 cells in 150 μL of sterile saline. […] The tumor size was calculated using the following formula: (largest diameter × smallest diameter^2)/2.
as §3
(§6) Five and ten days after tumor cell implantation, control-untreated tumor-bearing and treated tumor-bearing animals were anaesthetized with 3% isoflurane and were injected with 5.5 ± 0.2 MBq APN/CD13-specific ^68Ga-NODAGA-c(NGR) in 150 μL saline via the lateral tail vein. After 90 min incubation time, 20 min static PET scans were performed from the tumorous area using the preclinical miniPET device (University of Debrecen, Faculty of Medicine, Department of Medical Imaging, Division of Nuclear Medicine and Translational Imaging). After 3D OSEM-LOR image reconstruction, volumes of interest (VOIs) were manually drawn around the examined regions using the BrainCAD image analysis software and quantitative standardized uptake values (SUVs) were calculated as follows: SUV = [VOI activity (Bq/mL)]/[injected activity (Bq)/animal weight (g)], assuming a density of 1 g/mL. Tumor-to-muscle (T/M) ratios were calculated from the activity of the tumor and background (muscle).

HT1080 tumors (APN/CD13) = settings: for T/M SUVmean ratio of treated tumor: 90 min after iv tracer; for ^68Ga-NODAGA-c(NGR) SUVmean of treated tumor: PET 90 min after iv tracer, mean ± SD
Experimental: as §5, §3, §6

B16-F10 tumors = assay: Tumor volume, B16-F10 tumors; assay type: in vivo, C57BL/6 mice; settings: caliper, n = 10/group
Experimental: as §2, §3

APN/CD13 [5] = assay: Western blot analysis of APN/CD13 in HT1080 tumors; assay type: in vivo, human; settings: HT1080 tumors after treatment, densitometry
Experimental: For western blot analysis, frozen tissue samples were pulverized under liquid nitrogen, and tissue homogenization was performed with TissueLyser II (QIAGEN). Tumors were lysed in a RIPA buffer. After protein isolation, protein samples (10-40 μg) were separated on 10% SDS polyacrylamide gels and electrotransferred onto nitrocellulose membranes. After blocking, the membranes were incubated with primary anti-human and anti-mouse CD13 (from Santa-Cruz Biotechnology, Inc., USA) antibody at the dilution of 1 : 1000 overnight at 4°C. After washing, the membranes were probed with IgG HRP conjugated secondary antibody (Cell Signaling Technology, Inc., Beverly, MA, 1 : 2000). Beta-actin was used as a loading control. Bands were visualized by enhanced chemiluminescence reaction. Densitometry was performed using the ImageJ software. For the detailed protocol, please see Supplementary Material western blot analysis.
For western blot analysis frozen tissue samples were pulverized under liquid nitrogen and tissue homogenization was performed with TissueLyser II (QIAGEN). […] Upon densitometry, negative control samples (mouse large intestine) were considered to be 1 and values are expressed as fold change relative to controls to reduce unwanted variations. […]

in vivo [6] = settings: C57BL/6, mouse, iv, 5.5 MBq, total radioactivity, SUVmean of tumor
Experimental: as §5, §3, §6

in vivo [7] = settings: C57BL/6, mouse, iv, 5.5 MBq, total radioactivity, tracer uptake
Experimental: as §3, §4

in vivo [8] = settings: CB17 SCID, mouse, iv, 5.5 MBq, total radioactivity
Experimental: as §3, §4

[9] = set-up: species or system mice; settings: mouse, in vivo
Experimental: as §4

in vitro = in vitro ADME; settings: mouse, serum
Experimental: 5 mg (8.6 μmol) c[KNGRE]-NH2 peptide was dissolved in 0.9 mL 0.1 mol/dm^3 Na2CO3 buffer (pH = 8.42), then 7.5 mg (10.2 μmol) NODAGA-NHS ester dissolved in 0.1 mL DMSO was added to the peptide. The reaction was mixed for 24 hours at room temperature. NODAGA-c(NGR) was purified with semipreparative HPLC (KNAUER) and freeze-dried. For the radiolabeling procedure, the in vitro serum stability, and the determination of logp value, the same protocol was used as it was described earlier by our research group.
For the determination of the enzymatic stability, a stock solution was prepared from 100 μL of ^68Ga-NODAGA-c(NGR) solution and 1 mL PBS. 20 μL from this solution was introduced to 480 μL mouse serum (Sigma-Aldrich, St. Louis, Missouri, USA), and the mixture was tempered at 37°C. After 0, 30, 60, 90, and 120 min incubation time, 50 μL sample was taken and 50 μL abs. EtOH was added to the aliquots. Samples were centrifuged (20,000 rpm, 5 min), the supernatant was removed and diluted with the eluent of HPLC, then the analytical measurement was prepared.

in vivo [10] = settings: CB17 SCID, mouse, iv, 5.5 MBq, total radioactivity, SUVmean of tumor
Experimental: as §5, §3, §6

[11] = HT1080, day 3 (start of treatment)
[12] = HT1080, day 5, bestatin 15 mg/kg or actinonin 5 mg/kg ip daily
[13] = HT1080, day 10, bestatin 15 mg/kg or actinonin 5 mg/kg ip daily 7 days
[14] = B16-F10, day 5, bestatin 15 mg/kg or actinonin 5 mg/kg ip daily
[15] = B16-F10, day 5, ip daily from day 3 (bestatin 15 mg/kg, actinonin 5 mg/kg)
[16] = B16-F10, day 10, bestatin 15 mg/kg or actinonin 5 mg/kg ip daily 7 days
[17] = B16-F10, day 10, ip daily 7 days (bestatin 15 mg/kg, actinonin 5 mg/kg)
[18] = HT1080, day 5, ip daily from day 3 (bestatin 15 mg/kg, actinonin 5 mg/kg)
[19] = HT1080, day 10, ip daily 7 days (bestatin 15 mg/kg, actinonin 5 mg/kg)
[20] = B16-F10, day 3 (start of treatment)

Work on `CCCCC[C@H](CC(=O)NO)C(=O)N[C@H](C(=O)N1CCC[C@H]1CO)C(C)C` [actinonin] yielded a tumor volume (HT1080 tumors; [11]) of 49.1 ± 2.0 mm^3, a tumor volume (HT1080 tumors; [12]) of 68.08 ± 2.5 mm^3 and a tumor volume (HT1080 tumors; [13]) of 136.0 ± 8.5 mm^3. The “expression of APN/CD13 in tumor vs untreated” value (APN/CD13 [1]) was “significantly lower”, the antitumor effect (AKR tumor) was “full antitumor effect” and the “tumor growth of APN/CD13-positive leukemia” value [2] was “blocked the tumor growth”. For the same compound, the “growth of APN/CD13-negative lymphomas” value [3] was “arrested the growth”, the antitumor effect (human lymphoma) was “not seen” and the “T/M ID%/g, treated animals” value (B16-F10 tumor) was 1.71±1.45. The “T/M ID%/g, treated animals” value (HT1080 tumor) was 15.27±5.52, the “T/M ratio of treated tumor” value [4, 14] was 0.75 ± 0.15 and the “^68Ga-NODAGA-c(NGR) SUVmean of treated tumor” value (“^68Ga-NODAGA-c(NGR) SUVmean” for short) [4, 15] was 0.02 ± 0.001. For the same compound, the “T/M ratio of treated tumor” value [4, 16] was 0.74 ± 0.05, the “^68Ga-NODAGA-c(NGR) SUVmean” value [4, 17] was 0.02 ± 0.001 and the “T/M SUVmean ratio of treated tumor” value (HT1080 tumors (APN/CD13); [12]) was 2.25 ± 1.0. For the same compound, the “^68Ga-NODAGA-c(NGR) SUVmean” value (HT1080 tumors (APN/CD13); [18]) was 0.08 ± 0.04, the “T/M SUVmean ratio of treated tumor” value (HT1080 tumors (APN/CD13); [13]) was 15.57 ± 4.0 and the “^68Ga-NODAGA-c(NGR) SUVmean” value (HT1080 tumors (APN/CD13); [19]) was 0.11 ± 0.05. For the same compound, the tumor volume (B16-F10 tumors; [20]) was 49.0 ± 2.7 mm^3, the tumor volume (B16-F10 tumors; [14]) was 59 ± 4.9 mm^3 and the tumor volume (B16-F10 tumors; [16]) was 56.1 ± 2.1 mm^3.
With `CC(C)C[C@H](NC(=O)[C@@H](O)[C@H](N)Cc1ccccc1)C(=O)O` [bestatin] the tumor volume (HT1080 tumors; [11]) was 52.3 ± 2.8 mm^3, the tumor volume (HT1080 tumors; [12]) was 17 ± 1.2 mm^3 and the tumor volume (HT1080 tumors; [13]) was 7.0 ± 2.0 mm^3. For the same compound, the “expression of APN/CD13 in tumor vs untreated” value (APN/CD13 [1]) was “significantly lower”, the “amount of APN/CD13 protein in tumor vs control-untreated” value (APN/CD13 [5]) was “did not significantly reduce” and the “T/M ID%/g, treated animals” value (B16-F10 tumor) was 2.40±0.92. The “T/M ID%/g, treated animals” value (HT1080 tumor) was 1.45±0.15, the “T/M ratio of treated tumor” value [4, 14] was 1.11 ± 0.01 and the “^68Ga-NODAGA-c(NGR) SUVmean” value [4, 15] was 0.03 ± 0.01. The “T/M ratio of treated tumor” value [4, 16] was 1.63 ± 0.09, the “^68Ga-NODAGA-c(NGR) SUVmean” value [4, 17] was 0.04 ± 0.001 and the “T/M SUVmean ratio of treated tumor” value (HT1080 tumors (APN/CD13); [12]) was 0.57 ± 0.2. For the same compound, the “^68Ga-NODAGA-c(NGR) SUVmean” value (HT1080 tumors (APN/CD13); [18]) was 0.02 ± 0.01, the “T/M SUVmean ratio of treated tumor” value (HT1080 tumors (APN/CD13); [13]) was 0.61 ± 0.20 and the “^68Ga-NODAGA-c(NGR) SUVmean” value (HT1080 tumors (APN/CD13); [19]) was 0.01 ± 0.01. For the same compound, the tumor volume (B16-F10 tumors; [20]) was 52.1 ± 2.6 mm^3, the tumor volume (B16-F10 tumors; [14]) was 65.0 ± 5.2 mm^3 and the tumor volume (B16-F10 tumors; [16]) was 62.0 ± 2.8 mm^3.
`N=C(N)NCCC[C@@H]1NC(=O)CNC(=O)[C@H](CC(N)=O)NC(=O)[C@H](CCCCNC(=O)CCC(C(=O)O)N2CCN(CC(=O)O)CCN(CC(=O)O)CC2)NC(=O)CC[C@@H](C(N)=O)NC1=O` (some centres unmarked) [^68Ga-NODAGA-c(NGR), metal not drawn] (K(NODAGA)NGRE-NH2; lactam N-5 (inferred)) showed an SUV at 1.5 h (in vivo [6]) of 0.19 ± 0.03 SUV, a tissue uptake at 1.5 h (in vivo [7]; blood) of 0.09 ± 0.03 %ID/g and a tissue uptake at 1.5 h (in vivo [7]; fat) of 0.01 %ID/g. The tissue uptake at 1.5 h (in vivo [7]; heart) was 0.04 ± 0.01 %ID/g, the tissue uptake at 1.5 h (in vivo [7]; kidney) was 1.38 ± 0.13 %ID/g and the tissue uptake at 1.5 h (in vivo [7]; large intestine) was 0.06 ± 0.02 %ID/g. For the same compound, the tissue uptake at 1.5 h (in vivo [7]; liver) was 0.08 ± 0.02 %ID/g, the tissue uptake at 1.5 h (in vivo [7]; lung) was 0.1 ± 0.01 %ID/g and the tissue uptake at 1.5 h (in vivo [7]; muscle) was 0.02 %ID/g. It also gave a tissue uptake at 1.5 h (in vivo [7]; small intestine) of 0.07 ± 0.01 %ID/g, a tissue uptake at 1.5 h (in vivo [7]; spleen) of 0.05 ± 0.01 %ID/g and a tissue uptake at 1.5 h (in vivo [7]; stomach) of 0.06 ± 0.01 %ID/g. The tissue uptake at 1.5 h (in vivo [7]; tumor) was 0.27 ± 0.05 %ID/g, the SUVmean of tumor ([4]; C57BL/6, mouse, in vivo, iv, 5.5 MBq, 1.5 h) was 0.36 ± 0.05 and the SUVmean of tumor (HT1080 tumors (APN/CD13); CB17 SCID, mouse, in vivo, iv, 5.5 MBq, 1.5 h) was 0.10 ± 0.05. The tissue uptake at 1.5 h (in vivo [8]; T/M ID%/g (%ID/g tumor/%ID/g muscle)) was 5.3 ± 0.56 %ID/g, the tissue uptake at 1.5 h (in vivo [8]; tracer uptake, blood) was 0.04 ± 0.01 %ID/g and the tissue uptake at 1.5 h (in vivo [8]; tracer uptake, fat) was 0.02 ± 0.01 %ID/g. For the same compound, the tissue uptake at 1.5 h (in vivo [8]; tracer uptake, heart) was 0.03 ± 0.01 %ID/g, the tissue uptake at 1.5 h (in vivo [8]; tracer uptake, kidney) was 1.35 ± 0.45 %ID/g and the tissue uptake at 1.5 h (in vivo [8]; tracer uptake, large intestine) was 0.06 ± 0.01 %ID/g. The tissue uptake at 1.5 h (in vivo [8]; tracer uptake, liver) was 0.2 ± 0.01 %ID/g, the tissue uptake at 1.5 h (in vivo [8]; tracer uptake, lung) was 0.1 ± 0.02 %ID/g and the tissue uptake at 1.5 h (in vivo [8]; tracer uptake, muscle) was 0.01 %ID/g. For the same compound, the tissue uptake at 1.5 h (in vivo [8]; tracer uptake, small intestine) was 0.04 %ID/g, the tissue uptake at 1.5 h (in vivo [8]; tracer uptake, spleen) was 0.11 ± 0.02 %ID/g and the tissue uptake at 1.5 h (in vivo [8]; tracer uptake, stomach) was 0.04 ± 0.01 %ID/g. For the same compound, the tissue uptake at 1.5 h (in vivo [8]; tracer uptake, tumor) was 0.08 ± 0.04 %ID/g, the “accumulation in the kidneys” value [9] was 1.3-1.6 ID%/g and the “uptake in the liver” value [9] was 0.08-0.28 ID%/g. It also gave a remaining at 2 h (in vitro) greater than 99% and an SUV at 1.5 h (in vivo [10]) of 0.07 ± 0.03 SUV.
